What was measured:
[1] = test system: test subject; experiment: Bicycle ergometer test at 100 W: antagonism between inactive (1st dosage) and active (2nd dosage) substances (Example 1b); format: in vivo, human
Experimental: 13 to Mar. 6, 1999, with a subject in good physical condition under standard conditions. The subject was required each morning in the fasting state to perform successively (without interruption) at mechanical power output of 100 W, 125 W and 150 W, each lasting 10 minutes (total test duration 30 minutes each time). […] The heat production induced by mechanical exertion was calculated from the changes in the heart rate. An alternative possibility is also to determine it on the basis of the increase in humidity caused by the perspiration (the tests are carried out in a closed room) or reduction in weight (1 g of water=2.26 kJ). […] The values indicated in table la for the “average heart rate” are in each case averages over the 30-minute duration of the test; relative values for the oxygen consumption were established on the basis of the heart rates in a known manner, and the relative values indicated in Table 1a are based on the oxygen consumption on the first day (=100%); the values listed in the column “heat production” in Table 1a give the percentage deviation of the heat production, established on the basis of the perspiration, from the average from all the tests.
It is known that the oxygen uptake can be determined by measuring the heart rate as a function of the mechanical exertion. This ergometric method is based on establishing the oxygen transport volume through the action of the heart. Since the stroke volume is essentially constant irrespective of the intensity of the mechanical work, and the increased oxygen demand caused by the increase in work results in an increase in the heart rate, the quantity of the transported oxygen can be established by determining the additional heartbeats caused by the work. A 3-stage ergometer as recommended by the World Health Organization (WHO) is used in physiology research institutes and fitness clubs around the world.

[2] = test system: test subject; experiment: Bicycle ergometer test at 100 W with gelatin products (Example 7); format: in vivo, human
Experimental: In tests analogous to Example 1, the tests indicated in Table 7 were carried out with gelatin products which were produced in analogy to Examples 3-5. After a warm-up period of 5 minutes in each case firstly the heartbeats were recorded at a mechanical power output of 100 W during a 10-minute control test, then the 1st dosage was administered and immediately thereafter the heart rate was measured in a 10-minute test period with a power output of 100 W. In the case of a 2nd dosage, this further administration and a second 10-minute test period take place with a power output of 100 W immediately following the first test period.

[3] = Oxygen-sparing action during physical work, general findings in the description; format: in vivo; conditions: result in words; even occasionally increased

CN(C)CCCN1c2ccccc2CCc2ccccc21 [imipramine]
Average heart rate after 1st dosage ([1]; 1st dosage 10 mg in 20 ml of water, 10-minute test at 100 W): 109.5 per minute | change in vivo at 10 mg ([1]; Homo sapiens, 1st dosage 10 mg, 100 W, read-out: Change in the oxygen consumption after 1st dosage): 23% | Average heart rate after 1st dos. ([2]; 1st dosage 10 mg, 100 W): 100.2 per minute | Average heart rate before ([2]; 10-minute control test at 100 W before the 1st dosage): 87.7 per minute | Oxygen demand after administration [3]: not reduced

— patent US6703371B1, “Preparations for reducing oxygen consumption during physical efforts” (priority 1999, dated 2004)
